Test results reported in patent US20250326755A1, “CYCLIC QUATERNARY AMMONIUM SALT COMPOUND, AND PREPARATION METHOD THEREFOR AND USE THEREOF” (YICHANG HUMANWELL PHARMACEUTICAL CO., LTD., priority 2022, published 2025).
Structures can show the parent of a compound that is named as a salt. Where two headings read alike, the source gives them in different places.

Tests used:
Assay type in all cases: in vivo, SD rats
[1] = tested on: sciatic nerve of the rat
Protocol: The experimental methods described in the following test examples were standard procedures unless otherwise specified. All experimental animals used in the following test examples were SD rats purchased from Hunan Slac Jingda Experimental Animal Co., Ltd. Other test materials, unless stated otherwise, were purchased from conventional biochemical reagent suppliers.
The compounds listed in Table 1 and levobupivacaine hydrochloride (positive control) were administered to three groups of rats fully acclimated to the experimental environment, with one rat per group.
Solution Preparation: 2 mg/ml Levobupivacaine Hydrochloride Injection: 2.670 ml of 7.5 mg/ml levobupivacaine hydrochloride injection (Batch No. 92S0702) was pipetted into a 10 ml volumetric flask. 0.9% NaCl solution was added until the meniscus was level with the calibration line, and the solution was inverted and mixed thoroughly, to prepare 2 mg/ml levobupivacaine hydrochloride injection. 2 mg/ml Example Compound Solution: 6.6 mg of the example compound was accurately weighed and dissolved in 3.3 ml of 0.9% NaCl solution to prepare a 2 mg/ml example compound solution.
Both the positive control and the example compound were administered to each rat at 2 mg/ml, with an administration volume of 5 ml/kg, in a single injection near the sciatic nerve of the rat. After the administration, the rat was placed on a preheated hot plate (50±0.1° C.) of an intelligent hot plate instrument. […] The maximum thermal latency was controlled at 60 s. […] Any urine or feces on the hot plate was promptly cleaned and dried before subsequent tests.
Thermal latency results were expressed as the maximum proportional effect (MPE), calculated using the following formula.
Wherein: B represented the basal thermal latency of the rats; P was the maximum thermal latency C was the observed thermal latency at the detection time point.
Measurements were considered invalid if the MPE was less than 50% of the maximum proportional effect. If two consecutive measurements yielded an MPE of less than […], the experiment was terminated.

[2] = tested on: rat subcutaneous infiltration model; assay: Local anesthetic effect by subcutaneous infiltration, Von Frey needle stimulation of back skin
Protocol: After shaving and disinfecting the backs of SD rats (half male and half female) weighing 190-210 grams, a circle with a diameter of approximately 1.5 cm was drawn on one side of the exposed skin. 0.5 mL of a solution containing the drug was subcutaneously injected into the skin in the center. The solution, using physiological saline as the solvent, contained either 2 mg/ml bupivacaine hydrochloride or 1 mg/ml concentration of the compounds listed in Table 2 of the present application. Each group consisted of 10 rats. A Von Frey fiber with a 100-gram force was attached to a needle for local skin stimulation. One minute after drug administration, the rat's response to the stimulus was measured. Testing was conducted at 6 different points within the marked area of drug administration. Skin contraction, avoidance, and other behaviors following stimulation were observed and recorded. Three points in the center and three points around the circle were stimulated, and the number of skin contraction and avoidance behaviors was recorded as N6. […] Each compound was tested on 10 rats.

[3] = tested on: rat subcutaneous infiltration model; assay: as above; remark: listed apart in the source
[4] = 2 mg/ml, 5 ml/kg, single injection near the sciatic nerve of the rat, hot plate 50±0.1° C.
[5] = 1 mg/ml, 0.5 mL subcutaneous injection on the back, 10 rats

| Compound | Onset Time/min [1, 4] [min] | Duration/h [2, 5] [h] | Onset Time/min [2, 5] [min] | Duration/h ([3]; Drug Concentration 0.3 mmol/L) [h] | Duration/h ([3]; Drug Concentration 1 mmol/L) [h] | Duration/h [1, 4] [h] | Duration/h ([1]; rat, in vivo) [h] | Onset Time/min ([1]; rat, in vivo) [min] | Duration/h ([2]; Drug Concentration 6.9 mmol/L, subcutaneous infiltration) [h] | Duration/h ([2]; control at 2 mg/ml (6.9 mmol/L), 0.5 mL subcutaneous injection on the back) [h] |
| --- | --- | --- | --- | --- | --- | --- | --- | --- | --- | --- |
| CCCC[N+]1(CCCCNc2ccc(F)cc2)CCCC[C@H]1C(=O)Nc1c(C)cccc1C (stereo partly drawn) [Compound of Example 3, (2S)-1-Butyl-2-((2,6-dimethylphenyl)carbamoyl)-1-(4-(p-fluorophenylamino)butyl)piperidine bromide] | 1 | 72 to 96 | 1 | 24 to 48 | 48 to 72 | – | – | – | – | – |
| CCCC[N+]1(CCCCOc2cccc(C)c2)CCCC[C@H]1C(=O)Nc1c(C)cccc1C (stereo partly drawn) [Compound of Example 5, (2S)-1-Butyl-2-((2,6-dimethylphenyl)carbamoyl)-1-(4-(m-tolyloxy)butyl)piperidine bromide] | 1 | 72 to 96 | 1 | 24 to 48 | 48 to 72 | 48 to 72 | – | – | – | – |
| CCCC[N+]1(CCCCCN2CCn3cccc3C2c2ccccc2)CCCC[C@H]1C(=O)Nc1c(C)cccc1C (stereo partly drawn) [Compound of Example 13, (2S)-1-Butyl-2-((2,6-dimethylphenyl)carbamoyl)-1-(5-1-phenyl-3,4-dihydropyrrolo[1,2-a]pyrazin-2(1H)-yl)pentyl)piperidine bromide] | 1 | 48 to 72 | 1 | – | – | 24 to 48 | – | – | – | – |
| CCCC[N+]1(CCCCCOc2ccccc2)CCCC[C@H]1C(=O)Nc1c(C)cccc1C (stereo partly drawn) [Compound of Example 14, (2S)-1-Butyl-2-((2,6-dimethylphenyl)carbamoyl)-1-(5-(phenoxy)pentyl)piperidine bromide] | – | 48 to 72 | 2 | – | – | – | 24 to 48 | 2 | – | – |
| CCCC[N+]1(CCCCCOc2cccc(C)c2)CCCC[C@H]1C(=O)Nc1c(C)cccc1C (stereo partly drawn) [Compound of Example 15, (2S)-1-Butyl-2-((2,6-dimethylphenyl)carbamoyl)-1-(5-(m-tolyloxy)pentyl)piperidine bromide] | 1 | 48 to 72 | 1 | – | – | 24 to 48 | – | – | – | – |
| CCCC[N+]1(CCCCCOc2cc(F)ccc2N)CCCC[C@H]1C(=O)Nc1c(C)cccc1C (stereo partly drawn) [Compound of Example 16, (2S)-1-(5-(2-amino-5-fluorophenoxy)pentyl)-1-butyl-2-((2,6-dimethylphenyl)carbamoyl)piperidine bromide] | 1 | 48 to 72 | 1 | – | – | 24 to 48 | – | – | – | – |
| CCCC[N+]1(CCC(C)CCNc2ccc(F)cc2)CCCC[C@H]1C(=O)Nc1c(C)cccc1C (stereo partly drawn) [Compound of Example 18, (2S)-1-Butyl-2-((2,6-dimethylphenyl)carbamoyl)-1-(5-(((4-fluorophenyl)amino)-3-methylpentyl)piperidine bromide] | 2 | 24 to 28 | 2 | – | – | 17 | – | – | – | – |
| CCCC[N+]1(CCCCOc2ccc(F)cc2)CCCC[C@H]1C(=O)Nc1c(C)cccc1C (stereo partly drawn) [Compound of Example 24, (2S)-1-Butyl-2-((2,6-dimethylphenyl)carbamoyl)-1-(4-(4-fluorophenoxy)butyl)piperidine bromide] | 1 | 48 to 72 | 1 | – | – | – | – | – | – | – |
| CCCC[N+]1(CCCCOc2c(C)cc(C)cc2C)CCCC[C@H]1C(=O)Nc1c(C)cccc1C (stereo partly drawn) [Compound of Example 25, (2S)-1-Butyl-2-((2,6-dimethylphenyl)carbamoyl)-1-(4-(symmetricalmesityloxy)butyl)piperidine bromide] | 1 | 72 to 96 | 1 | 24 to 48 | 48 to 72 | – | – | – | – | – |
| CCCC[N+]1(CCCCOc2cccc(F)c2)CCCC[C@H]1C(=O)Nc1c(C)cccc1C (stereo partly drawn) [Compound of Example 26, (2S)-1-Butyl-2-((2,6-dimethylphenyl)carbamoyl)-1-(4-(3-fluorophenoxy)butyl)piperidine bromide] | 1 | 48 to 72 | 1 | – | – | 24 to 42 | – | – | – | – |
| CCCC[N+]1(CCCCOc2cccc(C#N)c2)CCCC[C@H]1C(=O)Nc1c(C)cccc1C (stereo partly drawn) [Compound of Example 27, (2S)-1-Butyl-1-(4-(3-cyanophenoxy)butyl)-2-((2,6-dimethylphenyl)carbamoyl)piperidine bromide] | 1 | 48 to 72 | 1 | – | – | 24 to 48 | – | – | – | – |
| CCCC[N+]1(CCCCOc2cccc(C(F)(F)F)c2)CCCC[C@H]1C(=O)Nc1c(C)cccc1C (stereo partly drawn) [Compound of Example 28, (2S)-1-Butyl-2-((2,6-dimethylphenyl)carbamoyl)-1-(4-(3-(trifluoromethyl)phenoxy)butyl) piperidine bromide] | 1 | 48 to 72 | 1 | – | – | 24 to 48 | – | – | – | – |
| CCCC[N+]1(CCCCOc2ccccc2C)CCCC[C@H]1C(=O)Nc1c(C)cccc1C (stereo partly drawn) [Compound of Example 30, (2S)-1-Butyl-2-((2,6-dimethylphenyl)carbamoyl)-1-(4-(o-tolyloxy)butyl)piperidine bromide] | – | 72 to 96 | 1 | 24 to 48 | 48 to 72 | – | 72 to 96 | 1 | – | – |
| CCCC[N+]1(CCCCOc2ccc(C)cc2)CCCC[C@H]1C(=O)Nc1c(C)cccc1C (stereo partly drawn) [Compound of Example 31, (2S)-1-Butyl-2-((2,6-dimethylphenyl)carbamoyl)-1-(4-(p-tolyloxy)butyl)piperidine bromide] | 1 | 48 to 72 | 1 | – | – | 24 to 30 | – | – | – | – |
| Cc1cccc(C)c1NC(=O)[C@@H]1CCCC[N+]1(CCCCOc1ccccc1)CC1CCCC1 (stereo partly drawn) [Compound of Example 36, (2S)-1-(Cyclopentylmethyl)-2-((2,6-dimethylphenyl)carbamoyl)-1-(4-phenoxybutyl)piperidine bromide] | 1 | 48 to 72 | 1 | – | – | 30 to 48 | – | – | – | – |
| Cc1cccc(C)c1NC(=O)[C@@H]1CCCC[N+]1(CCCCOc1ccccc1)CCCC(C)C (stereo partly drawn) [Compound of Example 38, (2S)-2-((2,6-Dimethylphenyl)carbamoyl)-1-(4-methylpentyl)-1-(4-phenoxybutyl)piperidine bromide] | – | 48 to 72 | 1 | – | – | – | 48 to 72 | 1 | – | – |
| CCCC[N+]1(CCCCOc2ccccc2)CCCC[C@H]1C(=O)Nc1c(Br)cccc1Br (stereo partly drawn) [Compound of Example 40, (2S)-1-Butyl-2-((2,6-dibromophenyl)carbamoyl)-1-(4-phenoxybutyl)piperidine bromide] | – | 48 to 72 | 1 | – | – | – | 32 to 48 | 1 | – | – |
| CCCC[N+]1(CCCCOc2cccc3c2OC(C)(C)C3)CCCC[C@H]1C(=O)Nc1c(C)cccc1C (stereo partly drawn) [Compound of Example 44, (2S)-1-Butyl-1-(4-((2,2-dimethyl-2,3-dihydrobenzofuran-7-yl)oxy)butyl)-2-((2,6-dimethylphenyl)carbamoyl)piperidine bromide] | 1 | 48 to 72 | 1 | – | – | – | – | – | – | – |
| CCCCN1CCCC[C@H]1C(=O)Nc1c(C)cccc1C [Levobupivacaine Hydrochloride, reference compound] | – | – | – | – | – | 3 | – | – | 3 | 3 |
| (2S)-1-Butyl-2-((4-fluorophenyl)carbamoyl)-1-(4-(m-tolyloxy)butyl)piperidine bromide [Compound of Example 22] | 1 | 48 to 72 | 1 | – | – | 48 to 72 | – | – | – | – |
